Experimental data published in ChEMBL document CHEMBL5154793, “Discovery of Thieno[2,3-d]pyrimidine-based KRAS G12D inhibitors as potential anticancer agents via combinatorial virtual screening” (Eur J Med Chem, 2022).
Activity calls are given as the source filed them. No cut-off for these calls is given here.

Legend:
[1] = tested on: PANC-1; test: Antiproliferative activity against human PANC1 cells harboring KRAS G12D mutant assessed as inhibition of cell viability after 24 hrs by MTT assay; type: functional, cell-based; details: PANC-1, 24 h
[2] = Toxicity in BALB/c mouse allografted with mouse CT26 cells assessed as body weight loss at 40 to 60 mg/kg, ip administered once a day for 10 days; type: organism-based; details: in vivo, 240 h, dose 40-60 mg/kg, time 10 day
[3] = tested on: CT26; test: In vivo inhibition of KRAS G12D mutant (unknown origin) mediated downstream signalling in mouse CT26 cells allografted in BALB/c mouse assessed as decrease in phosphorylation level of Raf in tumor tissue at 40 to 60 mg/kg, ip administered once a day for 10 days by Western blotting analysis; type: functional, organism-based; details: dose 40-60 mg/kg, time 10.0 day
[4] = tested on: GTPase KRas (Homo sapiens), P01116 [G12D]; test: Inhibition of KRAS G12D mutant (unknown origin) downstream signalling in human SW1990 cells assessed as suppression of Raf phosphorylation incubated for 24 hrs by pull down based Western blotting analysis; type: cell-based; details: dose <= 16.0 µM, DDE = dose-dependent effect
GTPase KRas (Homo sapiens), P01116 [G12D], sequence (P01116 whole entry G12D, looked up): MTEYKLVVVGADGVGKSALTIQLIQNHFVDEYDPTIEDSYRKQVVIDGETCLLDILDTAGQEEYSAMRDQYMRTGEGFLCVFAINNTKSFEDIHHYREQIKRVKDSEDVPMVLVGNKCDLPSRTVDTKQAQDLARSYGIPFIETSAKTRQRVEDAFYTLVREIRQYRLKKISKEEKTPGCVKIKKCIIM

[5] = tested on: HeLa; test: Antiproliferative activity against human HeLa cells harboring wild type KRAS assessed as inhibition of cell viability after 24 hrs by MTT assay; type: functional, cell-based
[6] = tested on: CT26; test: Antiproliferative activity against mouse CT26 cells harboring KRAS G12D mutant assessed as inhibition of cell viability after 24 hrs by MTT assay; type: functional, cell-based; details: CT26, 24 h
[7] = tested on: SW1990; test: Induction of apoptosis in human SW1990 cells assessed as late apoptotic cells at 2 uM measured after 24 hrs by PI/Annexin V staining based flow cytometric analysis (reference value: 3.75%); type: functional
[8] = tested on: SW1990; test: Induction of apoptosis in human SW1990 cells assessed as late apoptotic cells at 4 uM measured after 24 hrs by PI/Annexin V staining based flow cytometric analysis (reference value: 3.75%); type: functional
[9] = tested on: SW1990; test: Induction of apoptosis in human SW1990 cells assessed as viable cells at 8 uM measured after 24 hrs by PI/Annexin V staining based flow cytometric analysis (reference value: 82.9%); type: functional; details: read-out: Activity
[10] = tested on: SW1990; test: Induction of apoptosis in human SW1990 cells assessed as early apoptotic cells at 8 uM measured after 24 hrs by PI/Annexin V staining based flow cytometric analysis (reference value: 10.7%); type: functional
[11] = tested on: SW1990; test: Induction of apoptosis in human SW1990 cells assessed as necrotic cells at 8 uM measured after 24 hrs by PI/Annexin V staining based flow cytometric analysis (reference value: 2.69%); type: functional
[12] = tested on: CT26; test: Induction of apoptosis in mouse CT26 cells assessed as late apoptotic cells at 2 uM measured after 24 hrs by PI/Annexin V staining based flow cytometric analysis (reference value: 3.21%); type: functional
[13] = tested on: CT26; test: Induction of apoptosis in mouse CT26 cells assessed as necrotic cells at 2 uM measured after 24 hrs by PI/Annexin V staining based flow cytometric analysis (reference value: 0.789%); type: functional
[14] = tested on: CT26; test: Induction of apoptosis in mouse CT26 cells assessed as viable cells at 4 uM measured after 24 hrs by PI/Annexin V staining based flow cytometric analysis (reference value: 84.8%); type: functional; details: read-out: Activity
[15] = tested on: CT26; test: Induction of apoptosis in mouse CT26 cells assessed as late apoptotic cells at 4 uM measured after 24 hrs by PI/Annexin V staining based flow cytometric analysis (reference value: 3.21%); type: functional
[16] = tested on: CT26; test: Induction of apoptosis in mouse CT26 cells assessed as necrotic cells at 4 uM measured after 24 hrs by PI/Annexin V staining based flow cytometric analysis (reference value: 0.789%); type: functional
[17] = tested on: CT26; test: Induction of apoptosis in mouse CT26 cells assessed as viable cells at 8 uM measured after 24 hrs by PI/Annexin V staining based flow cytometric analysis (reference value: 84.8%); type: functional; details: read-out: Activity
[18] = tested on: CT26; test: Induction of apoptosis in mouse CT26 cells assessed as early apoptotic cells at 8 uM measured after 24 hrs by PI/Annexin V staining based flow cytometric analysis (reference value: 11.2%); type: functional
[19] = tested on: GTPase KRas (Homo sapiens), P01116 [G12D]; test: Binding affinity to human his-tagged KRAS G12D mutant assessed as change in enthalpy by isothermal titration calorimetry
[20] = tested on: GTPase KRas (Homo sapiens), P01116 [G12D]; test: Binding affinity to human his-tagged KRAS G12D mutant assessed as gibbs free energy change by isothermal titration calorimetry
[21] = tested on: SW1990; test: Inhibition of GTP bound KRAS in human SW1990 cells assessed as down regulation of KRAS-GTP protein level incubated for 12 hrs by Pull-Down based Western blotting analysis; type: functional, cell-based; details: dose 10-20 µM, DDE = dose-dependent effect
[22] = tested on: GTPase KRas (Homo sapiens), P01116 [G12D]; test: Inhibition of KRAS G12D mutant downstream signalling in human SW1990 cells assessed as suppression of ERK phosphorylation incubated for 24 hrs by pull down based Western blotting analysis; type: cell-based; details: dose <= 16.0 µM, DDE = dose-dependent effect
[23] = target: GTPase KRas (Homo sapiens) (UniProt P01116); test: Inhibition of wild type KRAS (unknown origin) downstream signalling in human HCT-116 cells assessed as suppression of ERK phosphorylation incubated for 24 hrs by pull down based Western blotting analysis; type: cell-based; details: dose <= 8.0 µM, DDE = dose-dependent effect
GTPase KRas (Homo sapiens), sequence (P01116 whole entry, looked up): as the sequence (P01116 whole entry G12D, looked up) above, with D12G counted along it

[24] = tested on: CT26; test: Inhibition of KRAS G12D mutant (unknown origin) downstream signalling in mouse CT26 cells assessed as suppression of Raf phosphorylation incubated for 24 hrs by pull down based Western blotting analysis; type: cell-based; details: dose <= 16.0 µM, DDE = dose-dependent effect
[25] = tested on: CT26; test: Antitumor activity against mouse CT26 cells allografted in BALB/c mouse assessed as tumor volume at 40 mg/kg, ip administered once a day for 10 days; type: functional; details: time 10 day
[26] = tested on: CT26; test: Antitumor activity against mouse CT26 cells allografted in BALB/c mouse assessed as tumor volume at 60 mg/kg, ip administered once a day for 10 days; type: functional; details: time 10 day
[27] = Toxicity in BALB/c mouse allografted with mouse CT26 cells assessed as effect on liver morphology at 40 to 60 mg/kg, ip administered once a day for 10 days by H and E staining based microscopic analysis; type: organism-based; details: in vivo, 240 h, dose 40-60 mg/kg, time 10 day
[28] = Toxicity in BALB/c mouse allografted with mouse CT26 cells assessed as neutrophil level at 40 to 60 mg/kg, ip administered once a day for 10 days (reference value: 1.080 to 1.250 10^9/L); type: organism-based; details: in vivo, 240 h, dose 40-60 mg/kg, time 10 day
[29] = Toxicity in BALB/c mouse allografted with mouse CT26 cells assessed as WBC level at 40 to 60 mg/kg, ip administered once a day for 10 days (reference value: 3.090 to 6.730 10^9/L); type: organism-based; details: in vivo, 240 h, dose 40-60 mg/kg, time 10 day
[30] = Toxicity in BALB/c mouse allografted with mouse CT26 cells assessed as HGB level at 40 to 60 mg/kg, ip administered once a day for 10 days (reference value: 0.319 to 108 g/L); type: organism-based; details: in vivo, 240 h, dose 40-60 mg/kg, time 10 day
[31] = Toxicity in BALB/c mouse allografted with mouse CT26 cells assessed as monocyte level at 40 to 60 mg/kg, ip administered once a day for 10 days (reference value: 0.170 to 0.540 10^9/L); type: organism-based; details: in vivo, 240 h, dose 40-60 mg/kg, time 10 day
[32] = Toxicity in BALB/c mouse allografted with mouse CT26 cells assessed as lymphocyte level at 40 to 60 mg/kg, ip administered once a day for 10 days (reference value: 5.6 to 35.2 %); type: organism-based; details: in vivo, 240 h, dose 40-60 mg/kg, time 10 day

Structure (SMILES): COc1ccc(C(F)(F)F)cc1-c1cc2c(N3CC4CCC(C3)N4)ncnc2s1
- IC50 [1]: 2300 nM
- Activity [2]: Non-Toxic
- Activity [3]: Active
- Activity [4]: Dde
- IC50 [5]: 7400 nM
- IC50 [6]: 2000 nM
- Activity [7]: 18.6%
- Activity [8]: 29.2%
- viability at 8 µM [9]: 4.26%
- Activity [10]: 37.1%
- Activity [11]: 1.81%
- Activity [12]: 4.59%
- Activity [13]: 1.39%
- viability at 4 µM [14]: 38.8%
- Activity [15]: 20.9%
- Activity [16]: 3.87%
- viability at 8 µM [17]: 8.57%
- Activity [18]: 24.4%
- deltaH [19]: -26.6 kcal/mol
- deltaG [20]: -10.2 kcal/mol
- inhibition [21]: Dde
- Activity [22]: Dde
- Activity [23]: Dde
- Activity [24]: Dde
- Activity [25]: 17%
- Activity [26]: 11%
- Activity [27]: Non-Toxic
- Activity [28]: 1.92 10^9/L
- Activity [29]: 5.05 10^9/L
- Activity [30]: 0.41 g/L
- Activity [31]: 0.15 10^9/L
- Activity [32]: 4.9%
